{
  "source": "PubChem BioAssay AID1963825",
  "about": "(Molecular Pharmacology Branch, DTP, NCI, 2024)",
  "assay": "Anticancer human tumor 997537-175-T-J1-PDC patient-derived colon adenocarcinoma cell line growth inhibition [POLQ]",
  "settings": "997537-175-T-J1-PDC complex spheroid viability, combination with POLQ inhibitors; for IC50: curve of first compound; for viability, T/C: stronger effect = lower value",
  "method_in_brief": "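Complex spheroid viability model combining PDC tumour cells with endothelial (HUVEC) and MSC stromal cells. Novobiocin, ART-558 or RP6685 were tested singly and in combination with standard and investigational anticancer drugs. Each was titrated in half-log steps from near clinical Cmax, or from 10 microM where Cmax was unknown.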",
  "key": {"[1]": {"settings": "second compound 0.0316 µM, first compound 0.0316 µM"}, "[2]": {"settings": "second compound 0.0316 µM, first compound 0.1 µM"}, "[3]": {"settings": "second compound 0.1 µM, first compound 0.0316 µM"}, "[4]": {"settings": "second compound 0.1 µM, first compound 0.1 µM"}, "[5]": {"settings": "second compound 0.316 µM, first compound 0.0316 µM"}, "[6]": {"settings": "second compound 0.316 µM, first compound 0.1 µM"}, "[7]": {"settings": "second compound 1 µM, first compound 0.0316 µM"}, "[8]": {"settings": "second compound 1 µM, first compound 0.1 µM"}, "[9]": {"settings": "second compound 3.16 µM, first compound 0.0316 µM"}, "[10]": {"settings": "second compound 3.16 µM, first compound 0.1 µM"}, "[11]": {"settings": "second compound 10 µM, first compound 0.0316 µM"}, "[12]": {"settings": "second compound 10 µM, first compound 0.1 µM"}},
  "data": [
    {"compound": "CC[C@@]1(O)C(=O)OCc2c1cc1n(c2=O)Cc2cc3c(CN(C)C)c(O)ccc3nc2-1", "note": "+ Cc1cccc(N(C)C(=O)C2C(O)CCN2c2nc(C)cc(C(F)(F)F)c2C#N)c1;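 note: luminescence signal used as a surrogate for viable cells; spheroids exposed to drugs for seven days before readout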", "values": [
      {"measurement": "IC50", "setting": "second compound 0.0316 µM", "value": "> 100", "unit": "nM"},
      {"measurement": "IC50", "setting": "second compound 0.1 µM", "value": "> 100", "unit": "nM"},
      {"measurement": "IC50", "setting": "second compound 0.316 µM", "value": "> 100", "unit": "nM"},
      {"measurement": "IC50", "setting": "second compound 1 µM", "value": "> 100", "unit": "nM"},
      {"measurement": "IC50", "setting": "second compound 3.16 µM", "value": "> 100", "unit": "nM"},
      {"measurement": "IC50", "setting": "second compound 10 µM", "value": "> 100", "unit": "nM"},
      {"measurement": "viability, T/C", "setting": "second compound 0.0316 µM, first compound 0.000316 µM", "value": 108, "unit": "%"},
      {"measurement": "viability, T/C", "setting": "second compound 0.0316 µM, first compound 0.001 µM", "value": 102, "unit": "%"},
      {"measurement": "viability, T/C", "setting": "second compound 0.0316 µM, first compound 0.00316 µM", "value": 102, "unit": "%"},
      {"measurement": "viability, T/C", "setting": "second compound 0.0316 µM, first compound 0.01 µM", "value": 83.1, "unit": "%"},
      {"measurement": "viability, T/C", "setting": "[1]", "value": 87.9, "unit": "%"},
      {"measurement": "viability, T/C", "setting": "[2]", "value": 71.3, "unit": "%"},
      {"measurement": "viability, T/C", "setting": "second compound 0.1 µM, first compound 0.000316 µM", "value": 94.9, "unit": "%"},
      {"measurement": "viability, T/C", "setting": "second compound 0.1 µM, first compound 0.001 µM", "value": 92.4, "unit": "%"},
      {"measurement": "viability, T/C", "setting": "second compound 0.1 µM, first compound 0.00316 µM", "value": 92.6, "unit": "%"},
      {"measurement": "viability, T/C", "setting": "second compound 0.1 µM, first compound 0.01 µM", "value": 105, "unit": "%"},
      {"measurement": "viability, T/C", "setting": "[3]", "value": 96.2, "unit": "%"},
      {"measurement": "viability, T/C", "setting": "[4]", "value": 64.3, "unit": "%"},
      {"measurement": "viability, T/C", "setting": "second compound 0.316 µM, first compound 0.000316 µM", "value": 90, "unit": "%"},
      {"measurement": "viability, T/C", "setting": "second compound 0.316 µM, first compound 0.001 µM", "value": 100, "unit": "%"},
      {"measurement": "viability, T/C", "setting": "second compound 0.316 µM, first compound 0.00316 µM", "value": 107, "unit": "%"},
      {"measurement": "viability, T/C", "setting": "second compound 0.316 µM, first compound 0.01 µM", "value": 95.1, "unit": "%"},
      {"measurement": "viability, T/C", "setting": "[5]", "value": 103, "unit": "%"},
      {"measurement": "viability, T/C", "setting": "[6]", "value": 73.7, "unit": "%"},
      {"measurement": "viability, T/C", "setting": "second compound 1 µM, first compound 0.000316 µM", "value": 108, "unit": "%"},
      {"measurement": "viability, T/C", "setting": "second compound 1 µM, first compound 0.001 µM", "value": 96.7, "unit": "%"},
      {"measurement": "viability, T/C", "setting": "second compound 1 µM, first compound 0.00316 µM", "value": 97.5, "unit": "%"},
      {"measurement": "viability, T/C", "setting": "second compound 1 µM, first compound 0.01 µM", "value": 111, "unit": "%"},
      {"measurement": "viability, T/C", "setting": "[7]", "value": 83.1, "unit": "%"},
      {"measurement": "viability, T/C", "setting": "[8]", "value": 66.7, "unit": "%"},
      {"measurement": "viability, T/C", "setting": "second compound 3.16 µM, first compound 0.000316 µM", "value": 113, "unit": "%"},
      {"measurement": "viability, T/C", "setting": "second compound 3.16 µM, first compound 0.001 µM", "value": 101, "unit": "%"},
      {"measurement": "viability, T/C", "setting": "second compound 3.16 µM, first compound 0.00316 µM", "value": 101, "unit": "%"},
      {"measurement": "viability, T/C", "setting": "second compound 3.16 µM, first compound 0.01 µM", "value": 89.3, "unit": "%"},
      {"measurement": "viability, T/C", "setting": "[9]", "value": 89.8, "unit": "%"},
      {"measurement": "viability, T/C", "setting": "[10]", "value": 72, "unit": "%"},
      {"measurement": "viability, T/C", "setting": "second compound 10 µM, first compound 0.000316 µM", "value": 98, "unit": "%"},
      {"measurement": "viability, T/C", "setting": "second compound 10 µM, first compound 0.001 µM", "value": 104, "unit": "%"},
      {"measurement": "viability, T/C", "setting": "second compound 10 µM, first compound 0.00316 µM", "value": 102, "unit": "%"},
      {"measurement": "viability, T/C", "setting": "second compound 10 µM, first compound 0.01 µM", "value": 97.3, "unit": "%"},
      {"measurement": "viability, T/C", "setting": "[11]", "value": 82.5, "unit": "%"},
      {"measurement": "viability, T/C", "setting": "[12]", "value": 68.9, "unit": "%"}
    ]},
    {"compound": "CC1COCCN1c1cc(C2(O)CC3CCC(C2)O3)c2cnn(-c3ccn[nH]3)c2n1", "note": "(centres undefined) + Nc1ccc(C#CCN(C(=O)Cc2ncc(C(F)(F)F)cc2C(F)(F)F)c2ccc(F)cc2)nn1", "values": [
      {"measurement": "IC50", "setting": "second compound 0.0316 µM", "value": 1700, "unit": "nM"},
      {"measurement": "IC50", "setting": "second compound 0.1 µM", "value": "> 10000", "unit": "nM"},
      {"measurement": "IC50", "setting": "second compound 0.316 µM", "value": "> 10000", "unit": "nM"},
      {"measurement": "IC50", "setting": "second compound 1 µM", "value": 6200, "unit": "nM"},
      {"measurement": "IC50", "setting": "second compound 3.16 µM", "value": 3160, "unit": "nM"},
      {"measurement": "IC50", "setting": "second compound 10 µM", "value": "> 10000", "unit": "nM"},
      {"measurement": "viability, T/C", "setting": "[1]", "value": 94.8, "unit": "%"},
      {"measurement": "viability, T/C", "setting": "[2]", "value": 83.7, "unit": "%"},
      {"measurement": "viability, T/C", "setting": "second compound 0.0316 µM, first compound 0.316 µM", "value": 58.4, "unit": "%"},
      {"measurement": "viability, T/C", "setting": "second compound 0.0316 µM, first compound 1 µM", "value": 56.8, "unit": "%"},
      {"measurement": "viability, T/C", "setting": "second compound 0.0316 µM, first compound 3.16 µM", "value": 40.1, "unit": "%"},
      {"measurement": "viability, T/C", "setting": "second compound 0.0316 µM, first compound 10 µM", "value": 53.3, "unit": "%"},
      {"measurement": "viability, T/C", "setting": "[3]", "value": 98.8, "unit": "%"},
      {"measurement": "viability, T/C", "setting": "[4]", "value": 73.5, "unit": "%"},
      {"measurement": "viability, T/C", "setting": "second compound 0.1 µM, first compound 0.316 µM", "value": 42.5, "unit": "%"},
      {"measurement": "viability, T/C", "setting": "second compound 0.1 µM, first compound 1 µM", "value": 72.8, "unit": "%"},
      {"measurement": "viability, T/C", "setting": "second compound 0.1 µM, first compound 3.16 µM", "value": 48, "unit": "%"},
      {"measurement": "viability, T/C", "setting": "second compound 0.1 µM, first compound 10 µM", "value": 64.5, "unit": "%"},
      {"measurement": "viability, T/C", "setting": "[5]", "value": 93.2, "unit": "%"},
      {"measurement": "viability, T/C", "setting": "[6]", "value": 80.8, "unit": "%"},
      {"measurement": "viability, T/C", "setting": "second compound 0.316 µM, first compound 0.316 µM", "value": 49.9, "unit": "%"},
      {"measurement": "viability, T/C", "setting": "second compound 0.316 µM, first compound 1 µM", "value": 46.3, "unit": "%"},
      {"measurement": "viability, T/C", "setting": "second compound 0.316 µM, first compound 3.16 µM", "value": 51.4, "unit": "%"},
      {"measurement": "viability, T/C", "setting": "second compound 0.316 µM, first compound 10 µM", "value": 75.1, "unit": "%"},
      {"measurement": "viability, T/C", "setting": "[7]", "value": 97.3, "unit": "%"},
      {"measurement": "viability, T/C", "setting": "[8]", "value": 69.4, "unit": "%"},
      {"measurement": "viability, T/C", "setting": "second compound 1 µM, first compound 0.316 µM", "value": 63.1, "unit": "%"},
      {"measurement": "viability, T/C", "setting": "second compound 1 µM, first compound 1 µM", "value": 47.6, "unit": "%"},
      {"measurement": "viability, T/C", "setting": "second compound 1 µM, first compound 3.16 µM", "value": 58.6, "unit": "%"},
      {"measurement": "viability, T/C", "setting": "second compound 1 µM, first compound 10 µM", "value": 44.7, "unit": "%"},
      {"measurement": "viability, T/C", "setting": "[9]", "value": 82.4, "unit": "%"},
      {"measurement": "viability, T/C", "setting": "[10]", "value": 79.1, "unit": "%"},
      {"measurement": "viability, T/C", "setting": "second compound 3.16 µM, first compound 0.316 µM", "value": 42, "unit": "%"},
      {"measurement": "viability, T/C", "setting": "second compound 3.16 µM, first compound 1 µM", "value": 56.4, "unit": "%"},
      {"measurement": "viability, T/C", "setting": "second compound 3.16 µM, first compound 3.16 µM", "value": 42.8, "unit": "%"},
      {"measurement": "viability, T/C", "setting": "second compound 3.16 µM, first compound 10 µM", "value": 74.7, "unit": "%"},
      {"measurement": "viability, T/C", "setting": "[11]", "value": 94, "unit": "%"},
      {"measurement": "viability, T/C", "setting": "[12]", "value": 79.9, "unit": "%"},
      {"measurement": "viability, T/C", "setting": "second compound 10 µM, first compound 0.316 µM", "value": 55.3, "unit": "%"},
      {"measurement": "viability, T/C", "setting": "second compound 10 µM, first compound 1 µM", "value": 52.2, "unit": "%"},
      {"measurement": "viability, T/C", "setting": "second compound 10 µM, first compound 3.16 µM", "value": 62, "unit": "%"},
      {"measurement": "viability, T/C", "setting": "second compound 10 µM, first compound 10 µM", "value": 65.2, "unit": "%"}
    ]}
  ]
}
